Measurements taken from publication PMC3517300 (Journal of neurochemistry, 2012).

Experiments:
[1] = molecular target: human DAT (LLC-PK-hDAT cells) (Homo sapiens, UniProt Q01959); assay: AMPH-induced [^3H]DA efflux in LLC-PK-hDAT cells; type: cell-based
[2] = test system: DAT; details: raft-enriched fractions vs whole cells; ref Foster et al. 2008; cited from earlier work
[3] = test system: hDAT surface expression in HEK-293 cells; assay: Surface biotinylation and immunoblot of DAT; type: cell-based, human; details: treatment with mβCD, nystatin, or repletion with cholesterol or desmosterol
[4] = molecular target: human dopamine transporter (DAT WT) (Homo sapiens, UniProt Q01959); assay: AMPH-induced DA efflux by RDEV, HEK 293-hDAT; type: cell-based; details: for effect on corrected efflux Vmax / effect on Km and Vmax of AMPH-induced DA efflux (RDEV): WT; for effect on corrected efflux Vmax: repletion with 200 µM sterol after 5.0 mM mβCD, or 25 µg/ml nystatin; for effect on Km and Vmax of AMPH-induced DA efflux (RDEV): 5.0 mM mβCD or 25 µg/ml nystatin, 10 µM AMPH
[5] = test system: DAT in lipid rafts of HEK-293 hDAT cells; assay: Sucrose density fractionation, DAT association with lipid rafts; type: cell-based, human; details: 1% Brij; depletion/chelation or repletion of mβCD depleted cells
[6] = test system: cholesterol-depleted HuH7 hepatoma cells or hippocampal membranes; details: within 1 hr; ref Vainio et al. 2006; Singh et al. 2009; cited from earlier work
[7] = test system: unesterified cholesterol in HEK 293-hDAT cells; assay: Cholesterol quantification; type: cell-based, human; details: for reduction of cholesterol content compared with untreated cells: 30 min, 37°C
[8] = molecular target: T1, W84L DAT mutant (Homo sapiens, UniProt Q01959, W84L); assay: AMPH-induced DA efflux by RDEV, W84L hDAT-HEK 293 cells; type: cell-based; details: for effect on AMPH-induced DA efflux Km, Vmax (RDEV): 2.5 mM mβCD or 25 µg/ml nystatin, 10 µM AMPH
T1 sequence (Q01959 1-620 W84L): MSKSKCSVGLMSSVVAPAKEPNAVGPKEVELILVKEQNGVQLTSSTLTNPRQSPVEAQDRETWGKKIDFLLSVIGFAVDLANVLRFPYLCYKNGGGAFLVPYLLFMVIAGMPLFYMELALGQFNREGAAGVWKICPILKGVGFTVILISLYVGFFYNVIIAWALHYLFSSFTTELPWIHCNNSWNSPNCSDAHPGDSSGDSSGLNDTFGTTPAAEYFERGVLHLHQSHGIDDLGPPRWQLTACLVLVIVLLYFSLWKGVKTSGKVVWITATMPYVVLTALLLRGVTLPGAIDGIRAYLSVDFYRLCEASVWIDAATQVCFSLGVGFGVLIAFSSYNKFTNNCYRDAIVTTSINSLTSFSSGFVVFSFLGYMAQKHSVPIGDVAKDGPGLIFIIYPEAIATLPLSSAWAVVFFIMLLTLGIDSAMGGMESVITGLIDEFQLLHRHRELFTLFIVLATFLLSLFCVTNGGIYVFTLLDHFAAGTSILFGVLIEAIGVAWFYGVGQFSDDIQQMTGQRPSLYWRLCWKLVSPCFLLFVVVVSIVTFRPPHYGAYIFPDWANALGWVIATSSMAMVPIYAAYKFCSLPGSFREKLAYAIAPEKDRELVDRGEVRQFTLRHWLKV

[9] = molecular target: T1, W84L DAT mutant; assay: DA uptake by RDEV, W84L hDAT-HEK 293 cells; type: cell-based; details: 2.5 mM mβCD or 25 µg/ml nystatin

Sequence of human DAT (LLC-PK-hDAT cells) (Q01959 whole entry): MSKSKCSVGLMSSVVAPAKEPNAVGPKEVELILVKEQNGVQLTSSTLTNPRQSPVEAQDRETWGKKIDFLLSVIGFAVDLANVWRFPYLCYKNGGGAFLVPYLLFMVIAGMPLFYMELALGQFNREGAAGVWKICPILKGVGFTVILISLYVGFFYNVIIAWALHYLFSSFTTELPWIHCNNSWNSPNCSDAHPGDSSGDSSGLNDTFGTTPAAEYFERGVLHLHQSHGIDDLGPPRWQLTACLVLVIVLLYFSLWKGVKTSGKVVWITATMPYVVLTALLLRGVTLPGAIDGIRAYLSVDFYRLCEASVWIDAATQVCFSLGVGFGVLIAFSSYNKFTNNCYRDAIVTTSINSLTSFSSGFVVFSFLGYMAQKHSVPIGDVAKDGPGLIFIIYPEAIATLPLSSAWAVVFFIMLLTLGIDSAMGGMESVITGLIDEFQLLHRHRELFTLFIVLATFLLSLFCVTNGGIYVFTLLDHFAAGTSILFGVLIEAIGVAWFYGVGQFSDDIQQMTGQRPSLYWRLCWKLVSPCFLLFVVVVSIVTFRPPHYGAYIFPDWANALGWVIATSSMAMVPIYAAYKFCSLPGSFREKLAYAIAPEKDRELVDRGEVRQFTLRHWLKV
Sequence of human dopamine transporter (DAT WT) (Q01959 whole entry): as above

Compound | changes in levels of DAT (total lysates and biotinylated surface fraction) [3] | effect on corrected efflux Vmax [4] | DAT distribution across sucrose gradient fractions (raft association) [5] | effect on Km and Vmax of AMPH-induced DA efflux (RDEV) [4] | effect on AMPH-induced DA efflux Km, Vmax (RDEV) [8] | effect on DA uptake Vmax and Km (RDEV) [9] | further results
C[C@H](N)Cc1ccccc1 [AMPH, dextroamphetamine] | – | – | – | – | – | – | [^3H]DA efflux over basal efflux ([1]; 10 µM AMPH, control cells, 5 min, 25°C): ~ 144%
NCCc1ccc(O)c(O)c1 [DA, dopamine] | – | – | – | – | – | – | IC50 of DA competing for [^3H]CFT binding, rafts vs whole cells [2]: two-fold higher
CC(C)CCC[C@@H](C)[C@H]1CC[C@H]2[C@@H]3CC=C4C[C@@H](O)CC[C@]4(C)[C@H]3CC[C@]12C [cholesterol] | no significant changes | indistinguishable from control values | restored DAT association with low buoyant density fractions | – | – | – | –
CC(C)=CCC[C@@H](C)[C@H]1CC[C@H]2[C@@H]3CC=C4C[C@@H](O)CC[C@]4(C)[C@H]3CC[C@]12C [desmosterol] | no significant changes | indistinguishable from control values | inefficient at restoring rafts | – | – | – | increase in cholesterol after replenishment with desmosterol [6]: ≤ 10%
C[C@@H]1[C@H](O)[C@@H](C)/C=C/C=C/CC/C=C/C=C/C=C/C=C/C(O[C@H]2O[C@H](C)[C@@H](O)[C@H](N)[C@@H]2O)CC2O[C@](O)(CC(O)C(O)CCC(O)CC(O)CC(O)CC(=O)O[C@H]1C)CC(O)C2C(=O)O (some centres unmarked) [nystatin] | no significant changes | no significant change | significant shift of DAT out of raft fractions 3–4 into denser fractions 7 and up | no effect | did not affect | did not significantly change Vmax or Km | change of overall content of cholesterol ([7]; 25 µg/ml): did not change; AMPH-induced [^3H]DA efflux over basal levels ([1]; nystatin treated cells, 10 µM AMPH): 150%
methyl-β-cyclodextrin [mβCD] | no significant changes | – | significant shift of DAT out of raft fractions 3–4 into denser fractions 7 and up | large reduction | partial rescue of efflux Vmax | enhanced uptake Vmax without altering Km | reduction of cholesterol content compared with untreated cells ([7]; 2.5 mM): 39%; reduction of cholesterol content compared with untreated cells ([7]; 5.0 mM): 63%; AMPH-induced [^3H]DA efflux over basal levels ([1]; 2.5 mM mβCD, 10 µM AMPH): 122%; AMPH-induced [^3H]DA efflux over basal levels ([1]; 5.0 mM mβCD, 10 µM AMPH): 115%; loss in efflux function ([1]; 2.5 and 5.0 mM mβCD): ~ 20%; reduction in reverse transport (corrected efflux Vmax) ([4]; 5.0 mM mβCD vs control, 37°C): ~ 40%; effect on Vmax ratio (incorporating the uptake correction) ([8]; 2.5 mM mβCD): rescued to that of DAT WT control
